Read-outs that look alike come from different tables or passages of the source.
What was measured:
soluble human furin [1] = target: T1, soluble human furin (Homo sapiens, UniProt P09958); test: furin enzyme assay with fluorogenic substrate pERTKR-mca; assay type: biochemical; conditions: for furin inhibition: peptide at 100 μM, 100 μM pERTKR-mca, Fig 1
T1 construct: Soluble human furin was purified from the conditioned medium; made in house; host or cells: CHO DG44 cells (stably transfected, methotrexate-amplified); purified from conditioned medium
T1 sequence (P09958 108-715 limits assumed): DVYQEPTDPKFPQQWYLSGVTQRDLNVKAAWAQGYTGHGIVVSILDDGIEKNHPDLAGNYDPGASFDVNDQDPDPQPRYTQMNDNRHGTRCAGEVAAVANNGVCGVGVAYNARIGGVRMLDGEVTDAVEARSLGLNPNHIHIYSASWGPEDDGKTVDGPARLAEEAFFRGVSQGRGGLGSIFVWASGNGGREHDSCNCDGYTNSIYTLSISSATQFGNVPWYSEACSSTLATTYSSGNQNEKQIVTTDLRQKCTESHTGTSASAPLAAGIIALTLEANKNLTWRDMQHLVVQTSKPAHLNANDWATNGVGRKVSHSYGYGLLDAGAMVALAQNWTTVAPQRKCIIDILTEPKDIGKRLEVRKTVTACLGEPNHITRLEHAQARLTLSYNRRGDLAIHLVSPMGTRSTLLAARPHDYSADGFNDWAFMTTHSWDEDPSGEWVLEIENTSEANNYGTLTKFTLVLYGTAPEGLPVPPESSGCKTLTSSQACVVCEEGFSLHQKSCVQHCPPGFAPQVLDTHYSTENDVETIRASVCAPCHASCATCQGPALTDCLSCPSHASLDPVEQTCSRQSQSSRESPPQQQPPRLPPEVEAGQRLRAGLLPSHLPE
Experimental: Soluble human furin was purified from the conditioned medium of stably-transfected, methotrexate-amplified CHO DG44 cells, as previously described. […] The HIV-1 TAT47-57 peptide was purchased from Creative Peptides (Shirley, NY). The Chariot reagent was purchased from Active Motif (Carlsbad, CA). […] The fourth peptide (W4-[R5]; N-acetyl-WWWW-[KRRRRR]) is N-terminally acetylated.
The furin assay was performed in 96-well polypropylene microtiter plates in a final volume of 50 μl, containing 100 mM HEPES, pH 7.0, 5 mM CaCl2, 0.1% Brij 35, 0.1% NaN3, and 0.1 mg/ml BSA. The substrate p-Glu-Arg-Thr-Lys-Arg-4-methylcoumaryl-7-amide (pERTKR-mca; Peptide Institute, Lexington, KY) was used at a final concentration of 100 μM. Furin was used at a final concentration of 20 nM. Reaction mixtures were incubated at 37°C and fluorescence measurements (380 nm excitation, 460 nm emission) were taken under kinetic conditions every minute for 60 min in a SpectraMax M2 microplate reader. […] After a 30-min preincubation at room temperature, 100 μM of pERTKR-methylaminocoumarin (mca) was added, and residual enzyme activities were monitored by measuring mca fluorescence intensity. Data were analyzed using Prism 5 as described previously. Due to cost considerations, Ki determinations were not performed for the HIV TAT peptide or for the Chariot reagent.
Soluble human furin, pre-incubated for 20 min at room temperature in the presence of (a) HIV-1 TAT (47–57) or (b) Chariot peptide, was tested at the specified concentrations. Furin activity was assessed by measuring the release of the fluorescent mca product from the fluorogenic substrate, pERTKR-mca.

[2] = test system: intracellular convertase activity in CHO-GRAPfurin cells; test: SEAP activity assay (GRAPfurin Golgi reporter); assay type: cell-based; conditions: 1 μM, 20–24 h at 37 °C
Experimental: CHO-GRAPfurin cells expressing the hybrid reporter protein GRAPfurin, consisting of the secreted alkaline phosphatase (SEAP) protein fused to a Golgi retention signal and a specific furin recognition/cleavage site, […] The medium was collected, centrifuged, and heated for 30 min at 65°C to inactivate non-relevant phosphatases. To test SEAP activity, 2.5 μl of heated medium was mixed with 100 μl of assay buffer (100 mM Tris-HCl, pH 10, 100 mM NaCl, 5 mM MgCl2) and 100 μl of 36 μM 4-methylumbelliferyl phosphate (MUP), a phosphatase substrate, made in 50 mM Tris-HCl, pH 10. Fluorescence was measured every 20 seconds after excitation at 365 nm and recording emission at 460 nm at 37°C for 1 h. Since SEAP released from the tethered furin reporter is secreted, SEAP levels in the medium are proportional to the activity of Golgi furin [24, 25]. The experiments were independently repeated three times using triplicate wells per condition.
Fig 4 Cyclic polyarginine peptides inhibit cellular convertase activity. (a) CHO cells were incubated with each compound at 1 μM for 24 h at 37°C, and cell viability was monitored by incubation for 4 h with WST-1. […] Secreted alkaline phosphatase activity was measured in the medium. […]

soluble human furin [3] = target: T1, soluble human furin; conditions: cited from earlier work; for Ki: furin
[4] = test system: HT1080 fibrosarcoma cells; test: Oris cell migration assay; assay type: cell-based; conditions: 10 μM peptide
Experimental: HT1080 fibrosarcoma cells (ATCC# CCL-121) were cultured to 80% confluence in growth medium (MEM (Earle’s salts + L-glutamine) 10% FBS, 1:100 non-essential amino acids (NEAA), 1 mM sodium pyruvate, 500 U/ml penicillin-streptomycin, and 1% gentamycin; Life Technologies). Cells were plated in an Oris Cell Migration Assay (Platypus Technologies) 96-well plate at 10^5 cells per well, following the manufacturer’s protocol. The next day, the growth medium was removed, the wells rinsed with PBS, and the cells were incubated in assay medium MEM (Earle’s salts + L-glutamine) containing 10% heat-inactivated FBS, 1:100 NEAA, 1 mM sodium pyruvate, 500U/ml penicillin-streptomycin, and 1% gentamycin in the presence or absence of inhibitors for 24 h at 37°C and 5% CO2. After incubation cells were rinsed with PBS (calcium and 20 mM HEPES, pH 7.4, as per the manufacturer’s protocol), and incubated with the Live / Dead Cell Stain Kit containing 2 μM calcein AM and 4 μM ethidium homodimer (EthD-1) for 30 min at 37°C and 5% CO2. Fluorescence was then measured at 485/528 nm excitation/emission for calcein AM, and 530/645 nm for EthD-1. […]
Fig 2 Effect of HIV-1 TAT47-57 peptide on cell migration of fibrosarcoma HT1080 cells. Cells were incubated with either 10 μM of peptide or vehicle (water) for 24 h at 37°C and cell migration was measured as described in “Materials and Methods”. […]

Compound | Ki (soluble human furin [1]) [nM] | furin inhibition (soluble human furin [1]) | inhibition constants against furin and other convertases (soluble human furin [3]) | Ki (soluble human furin [3]) [nM] | also measured
CC(=O)N[C@@H](Cc1c[nH]c2ccccc12)C(=O)N[C@@H](Cc1c[nH]c2ccccc12)C(=O)N[C@@H](Cc1c[nH]c2ccccc12)C(=O)N[C@@H](Cc1c[nH]c2ccccc12)C(=O)NCCCC[C@@H]1NC(=O)[C@H](CCCNC(=N)N)NC(=O)[C@H](CCCNC(=N)N)NC(=O)[C@H](CCCNC(=N)N)NC(=O)[C@H](CCCNC(=N)N)NC(=O)[C@H](CCCNC(=N)N)NC1=O [W4-[R5], N-acetyl-WWWW-[KRRRRR]] | 100 ± 140 | – | – | – | inhibition of intracellular convertase activity (SEAP release) [2]: most effective compound in cells
N=C(N)NCCC[C@@H]1NC(=O)[C@H](Cc2c[nH]c3ccccc23)NC(=O)[C@H](CS)NC(=O)[C@H](Cc2c[nH]c3ccccc23)NC(=O)[C@H](CCCNC(=N)N)NC(=O)[C@H](Cc2c[nH]c3ccccc23)NC(=O)[C@H](CCCNC(=N)N)NC(=O)[C@H](Cc2c[nH]c3ccccc23)NC(=O)[C@H](CCCNC(=N)N)NC(=O)[C@H](Cc2c[nH]c3ccccc23)NC1=O [[W5R4C], [WRWRWRWRWC]] | 340 ± 20 | – | – | – | –
KETWWETWWTEWSQPKKKRKV [Chariot] | – | ~ 60% | – | – | –
hexa-D-arginine amide | – | – | nanomolar range | 106 ± 10 | –
N=C(N)NCCC[C@H](NC(=O)[C@H](CCCNC(=N)N)NC(=O)[C@H](CCCNC(=N)N)NC(=O)[C@H](CCC(N)=O)NC(=O)[C@H](CCCNC(=N)N)NC(=O)[C@H](CCCNC(=N)N)NC(=O)[C@H](CCCCN)NC(=O)[C@H](CCCCN)NC(=O)[C@H](CCCNC(=N)N)NC(=O)CNC(=O)[C@@H](N)Cc1ccc(O)cc1)C(=O)O [HIV-1 TAT47-57, YGRKKRRQRRR] | – | nearly complete | – | – | inhibition at 10 µM (soluble human furin [1]; read-out: furin inhibition): ~60%; toxicity to HT1080 cells [4]: non-toxic
Nona-D-arginine amide | – | – | nanomolar range | 1.3 ± 2 | –

Reference: publication PMC4482483, “Cationic Cell-Penetrating Peptides Are Potent Furin Inhibitors” (PLoS ONE, 2015)
